“Also recorded” adds a separate entry of the source.
Key:
ABCC4/MRP4 = biological target: T1, ABCC4/MRP4 (Homo sapiens, UniProt O15439); assay: MRP4 vesicular transport: ATP-dependent DHEAS uptake into inverted HEK-293 membrane vesicles; format: biochemical; settings: DHEAS 0.5 µM, 32 °C, […], HEK-293 vesicles
T1 construct: purchased Solvo Biotechnology (Budapest, Hungary); host or cells: HEK-293 cells
T1 sequence (O15439 1-1325): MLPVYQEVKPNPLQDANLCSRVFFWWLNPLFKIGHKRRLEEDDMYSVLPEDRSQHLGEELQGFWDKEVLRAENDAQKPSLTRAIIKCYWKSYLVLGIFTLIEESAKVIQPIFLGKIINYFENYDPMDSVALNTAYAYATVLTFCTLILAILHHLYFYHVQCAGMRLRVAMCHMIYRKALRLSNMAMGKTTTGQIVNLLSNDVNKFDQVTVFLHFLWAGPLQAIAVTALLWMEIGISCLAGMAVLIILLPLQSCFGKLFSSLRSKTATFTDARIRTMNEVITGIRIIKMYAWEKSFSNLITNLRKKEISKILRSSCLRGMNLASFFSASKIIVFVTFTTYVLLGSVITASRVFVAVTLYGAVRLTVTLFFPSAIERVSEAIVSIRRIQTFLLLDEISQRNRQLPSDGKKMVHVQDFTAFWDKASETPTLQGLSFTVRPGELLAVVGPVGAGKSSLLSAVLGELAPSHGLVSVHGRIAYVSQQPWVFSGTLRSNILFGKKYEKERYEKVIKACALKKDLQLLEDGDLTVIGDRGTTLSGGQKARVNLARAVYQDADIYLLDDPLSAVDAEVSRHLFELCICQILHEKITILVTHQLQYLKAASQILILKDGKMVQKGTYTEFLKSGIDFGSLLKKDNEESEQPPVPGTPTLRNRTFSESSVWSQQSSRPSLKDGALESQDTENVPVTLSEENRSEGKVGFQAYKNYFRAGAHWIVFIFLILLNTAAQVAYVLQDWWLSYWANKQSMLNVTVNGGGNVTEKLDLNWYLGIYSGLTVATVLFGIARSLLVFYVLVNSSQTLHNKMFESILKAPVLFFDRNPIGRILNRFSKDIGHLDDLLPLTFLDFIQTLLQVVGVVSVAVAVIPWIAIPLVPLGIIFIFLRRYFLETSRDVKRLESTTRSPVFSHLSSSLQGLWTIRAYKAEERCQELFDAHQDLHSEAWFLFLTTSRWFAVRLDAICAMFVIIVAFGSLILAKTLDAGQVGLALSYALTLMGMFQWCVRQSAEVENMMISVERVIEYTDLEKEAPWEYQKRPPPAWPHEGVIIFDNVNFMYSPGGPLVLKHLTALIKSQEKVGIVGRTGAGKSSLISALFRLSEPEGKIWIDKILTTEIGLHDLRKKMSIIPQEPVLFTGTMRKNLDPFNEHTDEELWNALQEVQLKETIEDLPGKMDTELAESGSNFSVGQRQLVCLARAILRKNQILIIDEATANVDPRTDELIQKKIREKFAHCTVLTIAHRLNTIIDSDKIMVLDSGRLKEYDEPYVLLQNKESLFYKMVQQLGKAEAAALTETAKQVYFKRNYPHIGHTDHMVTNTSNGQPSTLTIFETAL

ABCB1/Pgp = system: ABCB1/Pgp; design: method as in Telbisz et al., 2021; settings: vesicular transporter assay, measured previously; ref Telbisz et al., 2021; cited from earlier work
OCT1/SLC22A1 = biological target: T2, OCT1/SLC22A1 (Homo sapiens, UniProt O15245); assay: OCT1-dependent metformin uptake in OCT1-overexpressing HEK-293 cells; format: cell-based
T2 construct: expressed in transfected cells; host or cells: HEK-293 cells, lentiviral transduction
T2 sequence (O15245 1-554): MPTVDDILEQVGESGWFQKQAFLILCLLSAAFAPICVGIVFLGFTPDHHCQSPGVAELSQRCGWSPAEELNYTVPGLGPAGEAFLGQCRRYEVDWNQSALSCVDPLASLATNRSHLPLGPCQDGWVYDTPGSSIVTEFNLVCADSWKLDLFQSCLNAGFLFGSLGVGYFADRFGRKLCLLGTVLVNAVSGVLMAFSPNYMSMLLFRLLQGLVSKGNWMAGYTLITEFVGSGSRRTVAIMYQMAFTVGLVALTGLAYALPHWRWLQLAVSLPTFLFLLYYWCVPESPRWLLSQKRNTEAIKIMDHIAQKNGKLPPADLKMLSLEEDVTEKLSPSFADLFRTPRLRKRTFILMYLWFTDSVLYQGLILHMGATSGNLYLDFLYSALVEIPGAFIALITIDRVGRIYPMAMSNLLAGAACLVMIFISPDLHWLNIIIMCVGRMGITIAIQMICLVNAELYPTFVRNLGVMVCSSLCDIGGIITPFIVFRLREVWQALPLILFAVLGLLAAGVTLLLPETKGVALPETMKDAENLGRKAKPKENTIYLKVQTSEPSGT

ABCB11/BSEP = biological target: T3, ABCB11/BSEP (Homo sapiens, UniProt O95342); assay: BSEP vesicular transport: ATP- and glyburide-sensitive taurocholate uptake into inverted HEK-293 membrane vesicles; format: biochemical; settings: taurocholate 2 µM, 37 °C, 10 min, HEK-293 vesicles
T3 construct: purchased Solvo Biotechnology (Budapest, Hungary); host or cells: HEK-293 cells
T3 sequence (O95342 whole entry): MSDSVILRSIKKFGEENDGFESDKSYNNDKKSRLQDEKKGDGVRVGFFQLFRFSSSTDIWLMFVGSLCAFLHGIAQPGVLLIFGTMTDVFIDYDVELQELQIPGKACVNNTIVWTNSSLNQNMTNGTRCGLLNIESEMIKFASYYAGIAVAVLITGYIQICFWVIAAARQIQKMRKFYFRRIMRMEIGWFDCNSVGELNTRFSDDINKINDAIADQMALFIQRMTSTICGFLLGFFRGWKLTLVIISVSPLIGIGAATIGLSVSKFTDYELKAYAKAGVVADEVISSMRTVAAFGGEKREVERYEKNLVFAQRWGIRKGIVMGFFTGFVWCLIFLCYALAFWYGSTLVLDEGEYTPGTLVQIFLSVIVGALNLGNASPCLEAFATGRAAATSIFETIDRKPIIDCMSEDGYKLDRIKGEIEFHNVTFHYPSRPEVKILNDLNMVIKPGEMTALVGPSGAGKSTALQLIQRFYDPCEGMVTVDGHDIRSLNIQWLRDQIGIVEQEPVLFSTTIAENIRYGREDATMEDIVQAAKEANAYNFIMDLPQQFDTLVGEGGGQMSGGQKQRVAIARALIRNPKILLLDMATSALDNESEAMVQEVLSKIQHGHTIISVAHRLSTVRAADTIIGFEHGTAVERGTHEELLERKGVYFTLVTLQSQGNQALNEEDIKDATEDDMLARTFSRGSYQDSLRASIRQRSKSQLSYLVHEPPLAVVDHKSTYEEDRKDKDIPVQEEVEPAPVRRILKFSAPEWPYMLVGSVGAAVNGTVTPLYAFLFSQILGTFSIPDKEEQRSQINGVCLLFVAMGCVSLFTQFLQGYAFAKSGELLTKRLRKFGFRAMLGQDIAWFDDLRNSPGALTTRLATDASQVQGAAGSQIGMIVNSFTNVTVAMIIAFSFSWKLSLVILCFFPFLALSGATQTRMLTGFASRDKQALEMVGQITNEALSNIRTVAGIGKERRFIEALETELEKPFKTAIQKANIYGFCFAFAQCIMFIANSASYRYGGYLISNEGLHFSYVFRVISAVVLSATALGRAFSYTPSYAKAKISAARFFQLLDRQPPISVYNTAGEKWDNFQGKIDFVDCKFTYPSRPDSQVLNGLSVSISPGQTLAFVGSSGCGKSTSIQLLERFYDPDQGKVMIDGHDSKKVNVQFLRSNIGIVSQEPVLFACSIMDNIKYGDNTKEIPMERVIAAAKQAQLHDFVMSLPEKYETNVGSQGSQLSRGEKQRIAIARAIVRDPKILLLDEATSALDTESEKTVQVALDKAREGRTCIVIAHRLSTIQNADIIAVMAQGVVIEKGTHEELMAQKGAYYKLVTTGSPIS

MATE1/SLC47A1 = biological target: T4, MATE1/SLC47A1 (Homo sapiens, UniProt Q96FL8); assay: MATE1-dependent metformin uptake in MATE1-overexpressing MDCKII cells; format: cell-based; settings: metformin 10 µM, 10 min, 37 °C, MDCKII cells
T4 construct: expressed in transfected cells; host or cells: MDCKII cells, lentiviral transduction
T4 sequence (Q96FL8 1-570): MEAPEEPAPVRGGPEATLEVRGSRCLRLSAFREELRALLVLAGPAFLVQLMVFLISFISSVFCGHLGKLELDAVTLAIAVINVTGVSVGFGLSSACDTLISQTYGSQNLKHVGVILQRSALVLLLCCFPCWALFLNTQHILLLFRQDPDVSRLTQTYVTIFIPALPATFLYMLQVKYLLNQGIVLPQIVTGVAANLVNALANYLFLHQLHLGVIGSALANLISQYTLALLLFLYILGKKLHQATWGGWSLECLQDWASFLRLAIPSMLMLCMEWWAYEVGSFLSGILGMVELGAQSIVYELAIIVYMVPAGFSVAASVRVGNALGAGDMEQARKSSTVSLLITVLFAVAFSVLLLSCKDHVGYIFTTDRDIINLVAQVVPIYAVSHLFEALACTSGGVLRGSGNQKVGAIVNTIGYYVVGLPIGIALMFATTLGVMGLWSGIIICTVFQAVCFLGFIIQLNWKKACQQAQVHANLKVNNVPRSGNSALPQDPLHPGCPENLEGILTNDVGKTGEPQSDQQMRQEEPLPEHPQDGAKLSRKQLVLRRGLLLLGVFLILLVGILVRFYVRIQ

ABCC2/MRP2 = biological target: T5, ABCC2/MRP2 (Homo sapiens, UniProt Q92887); assay: MRP2 vesicular transport: ATP-dependent CDCF uptake into inverted Sf9 membrane vesicles; format: biochemical; settings: CDCF 5 µM, 37 °C, 10 min, Sf9 vesicles
T5 construct: made in house; host or cells: Sf9 insect cells (baculovirus)
T5 sequence (Q92887 whole entry): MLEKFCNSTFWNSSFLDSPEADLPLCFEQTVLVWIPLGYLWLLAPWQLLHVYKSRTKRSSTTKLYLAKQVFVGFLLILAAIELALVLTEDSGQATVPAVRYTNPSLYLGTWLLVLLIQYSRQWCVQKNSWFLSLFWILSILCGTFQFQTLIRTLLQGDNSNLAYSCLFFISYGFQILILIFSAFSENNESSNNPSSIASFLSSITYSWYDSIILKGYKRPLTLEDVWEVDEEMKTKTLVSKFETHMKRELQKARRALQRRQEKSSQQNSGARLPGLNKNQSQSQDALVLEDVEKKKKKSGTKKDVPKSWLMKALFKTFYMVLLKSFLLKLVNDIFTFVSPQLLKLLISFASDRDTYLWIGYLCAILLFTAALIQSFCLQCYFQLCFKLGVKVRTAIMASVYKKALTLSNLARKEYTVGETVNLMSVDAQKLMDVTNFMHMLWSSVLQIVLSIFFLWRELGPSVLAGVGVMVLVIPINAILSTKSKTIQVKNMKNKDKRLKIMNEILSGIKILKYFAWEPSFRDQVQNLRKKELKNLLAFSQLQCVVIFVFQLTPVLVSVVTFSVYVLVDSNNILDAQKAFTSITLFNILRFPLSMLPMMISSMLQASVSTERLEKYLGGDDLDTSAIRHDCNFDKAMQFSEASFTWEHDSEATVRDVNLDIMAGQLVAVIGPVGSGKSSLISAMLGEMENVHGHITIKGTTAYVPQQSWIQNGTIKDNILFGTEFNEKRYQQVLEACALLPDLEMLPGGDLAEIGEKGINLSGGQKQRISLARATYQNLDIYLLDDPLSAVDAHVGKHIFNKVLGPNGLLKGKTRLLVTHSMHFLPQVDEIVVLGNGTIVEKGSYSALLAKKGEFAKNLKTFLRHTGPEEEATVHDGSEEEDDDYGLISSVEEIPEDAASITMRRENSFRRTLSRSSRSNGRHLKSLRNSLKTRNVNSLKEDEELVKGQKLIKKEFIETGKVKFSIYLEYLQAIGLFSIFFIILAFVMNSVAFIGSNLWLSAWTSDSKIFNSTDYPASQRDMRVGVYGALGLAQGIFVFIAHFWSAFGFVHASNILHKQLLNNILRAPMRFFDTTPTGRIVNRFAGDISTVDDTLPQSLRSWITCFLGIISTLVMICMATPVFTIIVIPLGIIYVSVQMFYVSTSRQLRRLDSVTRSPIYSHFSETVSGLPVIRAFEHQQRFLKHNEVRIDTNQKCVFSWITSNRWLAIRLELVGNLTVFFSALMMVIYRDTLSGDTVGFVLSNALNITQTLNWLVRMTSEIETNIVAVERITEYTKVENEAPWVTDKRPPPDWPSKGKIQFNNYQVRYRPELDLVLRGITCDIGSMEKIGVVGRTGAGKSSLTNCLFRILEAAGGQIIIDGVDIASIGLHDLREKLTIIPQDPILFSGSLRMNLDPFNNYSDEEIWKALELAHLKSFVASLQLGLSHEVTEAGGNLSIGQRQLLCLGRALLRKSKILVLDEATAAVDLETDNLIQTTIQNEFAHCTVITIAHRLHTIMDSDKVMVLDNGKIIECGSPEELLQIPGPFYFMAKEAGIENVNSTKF

ABCG2/BCRP = system: ABCG2/BCRP; design: method as in Telbisz et al., 2021; settings: vesicular transporter assay, measured previously; ref Telbisz et al., 2021; cited from earlier work
[1] = Kaletra 400 mg lopinavir and 100 mg ritonavir in combination; cited from earlier work
ABCC3/MRP3 = biological target: T6, ABCC3/MRP3 (Homo sapiens, UniProt O15438); assay: MRP3 vesicular transport: ATP- and benzbromarone-sensitive CDCF uptake into inverted HEK-293 membrane vesicles; format: biochemical
T6 construct: purchased Solvo Biotechnology (Budapest, Hungary); host or cells: HEK-293 cells
T6 sequence (O15438 whole entry): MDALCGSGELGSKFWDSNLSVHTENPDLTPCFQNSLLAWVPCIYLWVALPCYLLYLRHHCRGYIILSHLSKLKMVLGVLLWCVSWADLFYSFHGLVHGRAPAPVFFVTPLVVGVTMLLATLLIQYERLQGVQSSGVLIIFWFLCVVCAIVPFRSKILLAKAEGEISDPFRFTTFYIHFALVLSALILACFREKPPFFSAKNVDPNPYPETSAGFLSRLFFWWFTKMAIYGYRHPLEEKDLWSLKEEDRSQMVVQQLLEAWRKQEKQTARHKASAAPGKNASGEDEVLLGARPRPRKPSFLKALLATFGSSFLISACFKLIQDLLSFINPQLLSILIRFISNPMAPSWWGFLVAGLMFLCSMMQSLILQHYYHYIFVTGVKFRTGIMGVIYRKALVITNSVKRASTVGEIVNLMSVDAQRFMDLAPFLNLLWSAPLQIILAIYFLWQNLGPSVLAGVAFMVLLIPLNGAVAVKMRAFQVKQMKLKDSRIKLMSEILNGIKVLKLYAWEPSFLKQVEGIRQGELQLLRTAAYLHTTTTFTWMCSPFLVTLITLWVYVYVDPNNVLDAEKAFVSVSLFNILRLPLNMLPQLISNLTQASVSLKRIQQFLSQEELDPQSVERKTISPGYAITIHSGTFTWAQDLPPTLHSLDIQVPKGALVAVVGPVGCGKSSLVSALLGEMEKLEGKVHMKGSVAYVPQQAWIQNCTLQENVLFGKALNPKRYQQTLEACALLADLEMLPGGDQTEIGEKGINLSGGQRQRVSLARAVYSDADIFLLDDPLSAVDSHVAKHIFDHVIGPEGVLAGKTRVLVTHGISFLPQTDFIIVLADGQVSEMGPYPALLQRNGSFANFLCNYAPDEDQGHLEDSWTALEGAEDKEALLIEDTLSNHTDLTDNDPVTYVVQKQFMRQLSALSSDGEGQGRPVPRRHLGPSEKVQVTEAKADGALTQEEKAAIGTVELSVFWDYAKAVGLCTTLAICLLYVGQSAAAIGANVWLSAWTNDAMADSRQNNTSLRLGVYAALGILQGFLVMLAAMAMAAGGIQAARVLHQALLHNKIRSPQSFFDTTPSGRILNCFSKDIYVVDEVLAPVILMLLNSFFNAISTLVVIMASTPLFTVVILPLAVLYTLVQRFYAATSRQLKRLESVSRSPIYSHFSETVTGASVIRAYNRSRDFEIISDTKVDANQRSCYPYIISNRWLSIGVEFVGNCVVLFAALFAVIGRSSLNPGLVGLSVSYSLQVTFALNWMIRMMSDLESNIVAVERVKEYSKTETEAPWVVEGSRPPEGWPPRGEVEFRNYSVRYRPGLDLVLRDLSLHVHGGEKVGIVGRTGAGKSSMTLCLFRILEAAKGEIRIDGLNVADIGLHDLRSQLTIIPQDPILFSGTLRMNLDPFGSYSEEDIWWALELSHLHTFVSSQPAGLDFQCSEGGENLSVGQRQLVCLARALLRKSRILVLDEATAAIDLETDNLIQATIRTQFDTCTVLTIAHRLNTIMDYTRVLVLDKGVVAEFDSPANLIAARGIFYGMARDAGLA

CC(C)c1nc(CN(C)C(=O)N[C@H](C(=O)N[C@@H](Cc2ccccc2)C[C@H](O)[C@H](Cc2ccccc2)NC(=O)OCc2cncs2)C(C)C)cs1 [RIT, ritonavir]
ABCC4/MRP4 Type of effect (ABCC4/MRP4): No effect | ABCB1/Pgp Type of effect (ABCB1/Pgp): inh | OCT1/SLC22A1 Type of effect (OCT1/SLC22A1; metformin 10 µM, 5 min, 37 °C, HEK-293 cells): strong inhibitory effect and inh | concentration of strong inhibitory effect on OCT1 (OCT1/SLC22A1; metformin uptake): below 10 µM | ABCB11/BSEP Type of effect (ABCB11/BSEP): strongly inhibited TC transport at low concentrations and inh | MATE1/SLC47A1 Type of effect (MATE1/SLC47A1): strong inhibitory action and inh | ABCC2/MRP2 Type of effect (ABCC2/MRP2): did not inhibit but rather increased the probe substrate transport at high concentrations; also recorded: Increase | ABCG2/BCRP type of effect (ABCG2/BCRP): inh | peak plasma concentrations in vivo [1]: 1 to 1.73 µM | ABCC3/MRP3 Type of effect (ABCC3/MRP3; CDCF 5 µM, 37 °C, 10 min, HEK-293 vesicles): inh | concentration at which MRP3 transport is inhibited (ABCC3/MRP3; CDCF uptake): lower than 10 µM

— PMC8426393, “Interactions of anti-COVID-19 drug candidates with hepatic transporters may cause liver toxicity and affect pharmacokinetics” (Scientific Reports, 2021)
